This note sets out measurements from BindingDB's records for PubMed 1513320 (Synaptic Pharmaceutical, 1992).

Each structure is given as a SMILES string. Some results are limits rather than exact numbers.

This assay deals with 5-hydroxytryptamine receptor 1E (Homo sapiens, UniProt P28566).
Chain of 5-hydroxytryptamine receptor 1E (P28566 whole entry): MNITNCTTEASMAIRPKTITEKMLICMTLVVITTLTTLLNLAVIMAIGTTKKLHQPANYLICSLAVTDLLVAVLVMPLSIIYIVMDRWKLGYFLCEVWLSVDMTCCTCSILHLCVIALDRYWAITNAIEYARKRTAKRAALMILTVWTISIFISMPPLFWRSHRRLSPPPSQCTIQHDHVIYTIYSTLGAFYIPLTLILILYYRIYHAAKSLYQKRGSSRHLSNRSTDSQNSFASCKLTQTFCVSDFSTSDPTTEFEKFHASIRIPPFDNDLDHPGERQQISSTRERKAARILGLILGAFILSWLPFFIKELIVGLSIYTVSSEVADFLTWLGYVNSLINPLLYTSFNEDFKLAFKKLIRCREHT
Turning to `Cn1cc(CCN)c2cc(O)ccc21` [5-HT,omega-N-Me], the Ki was found to be 0.121 µM.
The same measure for `O=C(c1ccc(F)cc1)C1CCN(CCn2c(=O)[nH]c3ccccc3c2=O)CC1` [3-(2-{4-[(4-fluorophenyl)carbonyl]piperidin-1-yl}ethyl)-1,2,3,4-tetrahydroquinazoline-2,4-dione]: > 10 µM; for `CC(C)NCC(O)COc1cccc2[nH]ccc12` (stereo not drawn) [LB-46]: > 10 µM.
Turning to `COC(=O)[C@@H]1[C@H]2C[C@H]3c4[nH]c5ccccc5c4CCN3C[C@@H]2CC[C@@H]1O` [yohimbic acid methyl ester], the Ki worked out at 3.43 µM.
The same measure for `CCC(=O)c1ccc(N)cc1` [CAS_6270]: > 10 µM.
On to `COc1cc(N)c(Cl)cc1C(=O)NC1CN2CCC1CC2` (stereo not drawn) [ZACOPRIDE,R], for which the inhibitory constant (Ki) was > 10 µM.
Compound `CC(CO)NC(=O)C1C=C2c3cccc4[nH]cc(c34)CC2N(C)C1` (stereo not drawn) [CAS_60-79-7] gave a Ki of 0.088 µM.
Turning to `NCCc1c[nH]c2ccc(C(N)=O)cc12` [[3H]-5-carboxamidotryptamine], the Ki was > 10 µM.

Usually Ki stands for a measure of affinity in units of concentration, obtained from inhibition or displacement. Higher therefore signals weaker binding.
